Assays:
Format in all cases: functional
Cavia porcellus [1] = organism: Cavia porcellus; experiment: Agonistic effect on beta-FNA treated guinea pig ileum preparations (GPI)
Cavia porcellus [2] = organism: Cavia porcellus; experiment: Agonistic effect on untreated guinea pig ileum preparations (GPI)
[3] = kappa antagonistic effect on beta-FNA and alpha-CNA treated GPI (IC50 ratio=IC50 after treatment/IC50 before treatment)
[4] = kappa antagonistic effect on beta-FNA treated GPI (IC50 ratio=IC50 after treatment/IC50 before treatment)

| Compound | IC50 (Cavia porcellus [1]) [nM] | IC50 (Cavia porcellus [2]) [nM] | Ratio [3] | Ratio [4] | IC50 (Cavia porcellus [1]; Cavia porcellus, Ileum) [nM] | IC50 (Cavia porcellus [2]; Cavia porcellus, Ileum) [nM] |
| --- | --- | --- | --- | --- | --- | --- |
| Oc1ccc2c3c1O[C@H]1[C@@H](N(CCCl)CCCl)CCC4(O)C(C2)N(CC2CC2)CCC314 (stereo partly specified) | 2.4 | 5.5 | – | – | – | – |
| CCOc1ccc2c(c1)C1(C)CCN(CC3CC3)C(C2=O)C1C (stereo unspecified) [ETHYLKETAZOCINE] | – | – | 10.1 | 1.21 | 0.69 | 0.72 |
